The values that follow come from paper PMC5840262, “Design, Synthesis and Evaluation of Branched RRWQWR-Based Peptides as Antibacterial Agents Against Clinically Relevant Gram-Positive and Gram-Negative Pathogens” (Frontiers in Microbiology, 2018).

Ends that are not written are not given here. Some results are limits rather than exact numbers.

Data set [1] relates to Pseudomonas aeruginosa clinical isolate 47,661. The format is cell-based. As for the experimental part:
(§1) For the clinical isolates, we used 20 different isolates from the Public Health Reference Laboratory collection of the Secretaría de Salud del Distrito (SdSD; Bogotá, Colombia). The samples were collected from June to December 2016. For each isolate, the patient parameters (age, gender and location) and the culture site were recorded for epidemiologic monitoring (Table 1). All isolates had been previously tested for antibiotic sensitivity at the Public Health Microbiology Laboratory using either the Phoenix™ system (Gram-positive) or the VITEK 2 system (Gram-negative).
(§2) We screened all five peptides against the ATCC reference strains and the clinical isolates according to Method M7-A7 of the National Committee for Clinical Laboratory Standards (CLSI, [2007]). The MIC50 and MBC values were determined using a broth microdilution and growth inhibition method previously reported by Leon-Calvijo et al. ([2015]), with some modifications (Wiegand et al., [2008]). Briefly, the MIC50 experiments comprised a liquid-inhibition growth assay in a sterile, untreated, 96-well flat-bottom tissue culture plate. The bacteria were cultured overnight n Mueller Hinton agar; three colonies were transferred to 8 mL of Mueller Hilton broth and incubated at 37°C until the mid-exponential phase of growth. The turbidity of the cultures was measured and adjusted spectrophotometrically to a McFarland standard of 0.5, and then diluted to a final concentration of 5 × 10^7 colony forming units (CFU) per well. Stock solutions (2,000 μM) of each test peptide were serially diluted to final concentrations (per well) of 200, 100, 50, 25, 12.5, and 6.25 μM. Each concentration was evaluated in duplicate and each assay was performed in triplicate.
(§3) Wells containing Mueller Hilton broth with bacterial inoculum only served as bacterial-growth controls. Additional controls included Mueller Hilton broth alone (as blank) and Mueller Hilton broth with ciprofloxacin (2 μg/mL; as positive control). The microplate was incubated for 24 h at 37°C, and growth inhibition was measured by monitoring the optical density at 620 nm (OD620). The MIC50 was defined as the peptide concentration at which bacterial growth was inhibited by 50%.
(§4) To determine the MBC, an aliquot from each well of the MIC50 assay was spread onto Mueller Hilton agar. After 18 h at 37°C, the concentration that inhibited bacterial growth was determined. Each of these tests was performed four times. MBC was defined as the lowest concentration of peptide at which the number of bacteria was reduced by 99.9% in vitro (European Committee for Antimicrobial Susceptibility Testing, [2000]).

For data set [2], the system named is Staphylococcus aureus clinical isolate 43,062. In kind it is cell-based. As for the experimental part:
as §1, §2, §3, §4

The test system of data set [3] is Klebsiella pneumoniae clinical isolate 51,048. The format is cell-based. As for the experimental part: as §1, §2, §3, §4
The test system of data set [4] is clinical isolates of Gram-positive bacteria (Enteroccocus faecium, Staphylococcus aureus). In words: Therapeutic index, Gram-positive clinical isolates. From the text: (§5) We determined the therapeutic index of each peptide, which we defined as the ratio of Maximum Hemolytic Activity (Hmax) to MIC50 (Hmax/MIC50).
(§6) The results are shown in Table 7 (Gram-positive) and Table 8 (Gram-negative). Regarding the Gram-positive bacteria, the palindromic, dimeric and tetrameric peptides were active chiefly against S. aureus. This trend was consistent with results of the experiments on the ATCC strains, in which these peptides were only active against the sensitive strain of the […] bacteria.

Data set [5] relates to clinical isolates of Gram-negative bacteria (Klebsiella pneumoniae, Pseudomonas aeruginosa). As to the kind of experiment: Therapeutic index, Gram-negative clinical isolates.
From the text: as §5, §6

Data set [6] relates to Gram-negative ATCC strains (K. pneumoniae 13883 and 700603, P. aeruginosa 10145 and 27853).
From the text: as §5
The therapeutic index (TI) is a ratio of the toxic dose of a substance to its therapeutically-active dose and can be calculated different ways (e.g., LD50/ED50). Here, we calculated a TI value for each peptide against all the Gram-positive or the Gram-negative ATCC strains, by dividing its Hmax by its MIC50 for the given group of strains. […] Additionally, to make our quantitative analysis more robust [geometric mean (Khachatryan et al., [2017]) and fold values], we have included MIC50 values for these peptides against S. aureus and K. pneumoniae that we previously obtained using the same assay, the M7-A7 method of the National Committee for Clinical Laboratory Standards (Leon-Calvijo et al., [2015]).

Data set [7] has as its system Enterococcus faecalis ATCC 29212 (sensitive). In kind it is cell-based. As for the experimental part: as §2, §3, §4
Data set [8] has as its system Pseudomonas aeruginosa ATCC 10145 (sensitive). In kind it is cell-based. As for the experimental part: as §2, §3, §4
Data set [9] has as its system Pseudomonas aeruginosa ATCC 27853 (resistant). In kind it is cell-based. As for the experimental part: as §2, §3, §4
Data set [10] relates to Enterococcus faecalis ATCC 51575 (resistant). In kind it is cell-based. As for the experimental part: as §2, §3, §4
Data set [11] concerns human erythrocytes. In words: Hemolytic activity. The format is cell-based. The note with it: red cells of human, 2 h. As for the experimental part:
Human erythrocytes collected from the blood samples of healthy humans were harvested by centrifugation for 7 min at 162 × g and washed three times in phosphate-buffered saline (PBS). The erythrocytes (2% hematocrit in PBS) were incubated with peptide molecules at several concentrations (6.25, 12.5, 25, 50, and 100 μM) for 2 h at 37°C. PBS was used as negative control for hemolysis, and sterile distilled water was used as positive control (100% hemolysis). The plate was subsequently centrifuged at 1,459 × g for 10 min at 4°C. Aliquots of the supernatant from each well (75 μL) were carefully transferred to a new sterile 96-well plate, and hemolytic activity was evaluated by measuring the OD492 using an Asys Expert Plus Microplate reader. The experiments were performed in duplicate, and hemolytic activity was calculated for each peptide.

One may read the MBC as the lowest tested concentration that kills the bacteria rather than only halting them. Read a low MBC as more potent killing. A word on the MIC50: it is an inhibitory concentration at the 50% level, which refers to growth in some studies and to a panel of isolates in others. Regarding RWQWRWQWR [PLS], the MBC in data set [1] (clinical isolate 47,661, 18 h) is more than 100 µM; in data set [2] (clinical isolate 43,062, 18 h), 100.0 µM; in data set [3] (clinical isolate 51,048, 18 h), more than 100 µM; in data set [7] (ATCC 29212, 18 h) it was 100.0 µM; in [8] (ATCC 10145, 18 h) it was more than 200.0 µM; in [9] (ATCC 27853, 18 h), more than 200.0 µM. Moreover, the MBC in data set [10] (ATCC 51575, 18 h) is more than 200.0 µM. Besides, the MIC50 in [1] (clinical isolate 47,661, 24 h) was 75.0 µM; in [2] (clinical isolate 43,062, 24 h), 50.4 µM; in [3] (clinical isolate 51,048, 24 h), 11.7 µM; in data set [7] (ATCC 29212, 24 h), 25.6 µM; in [8] (ATCC 10145, 24 h), 99.7 µM; in data set [9] (ATCC 27853, 24 h), 107.2 µM. Further, the MIC50 in [10] (ATCC 51575, 24 h) was more than 200.0 µM. Besides, the entries for the “Gm, geometric mean of MIC50 values” in data set [4], in data set [5] and in data set [6] were 13.7, 17.4 µM and 54.1, respectively. For the same sequence, the “H50, concentration of peptide leading to 50% hemolysis” value in [11] was more than 100 µM.
